According to patent US8541380B2, “C-aryl glucoside SGLT2 inhibitors and pharmaceutical compositions comprising same” (Green Cross Corporation, priority 2009, dated 2013):

Each compound was assayed against human SGLT2 (Homo sapiens (Human), UniProt P31639) (assay: hSGLT2 inhibitory activity, sodium-dependent 14C-AMG glucose transport assay in CHO cells expressing hSGLT2). Conditions: 14C-AMG uptake, CHO cells expressing hSGLT2, 37° C. for 2 h.
Format: cell-based
Excerpt: Human SGLT2 (hSGLT2) gene was amplified by PCR from cDNA-Human Adult Normal Tissue Kidney (Invitrogen, Carlsbad, Calif.). The hSGLT2 sequence was cloned into pcDNA3.1(+) for mammalian expression and were stably transfected into Chinese hamster ovary (CHO) cells. SGLT2-expressing clones were selected based on resistance to G418 antibiotic (Geneticin®, Invitrogen, Carlsbad, Calif.) and activity in the ^14C-α-methyl-D-glucopyranoside (^14C-AMG) uptake assay.
For sodium-dependent glucose transport assay, cells expressing hSGLT2 were seeded into a 96-well culture plate at a density of 5×10^4 cells/well in RPMI medium 1640 containing 10% fetal bovine serum. The cells were used 1 day after plating. They were incubated in pretreatment buffer (10 mM HEPES, 5 mM Tris, 140 mM choline chloride, 2 mM KCl, 1 mM CaCl2, and 1 mM MgCl2, pH 7.4) at 37° C. for 10 min. They were then incubated in uptake buffer (10 mM HEPES, 5 mM Tris, 140 mM NaCl, 2 mM KCl, 1 mM CaCl2, 1 mM MgCl2, and 1 mM ^14C-nonlabeled AMG pH 7.4) containing ^14C-labeled (8 uM) and inhibitor or dimethyl sulfoxide (DMSO) vehicle at 37° C. for 2 h. Cells were washed twice with washing buffer (pretreatment buffer containing 10 mM AMG at room temperature) and then the radioactivity was measured using a liquid scintillation counter.

Chain of human SGLT2 (P31639 whole entry): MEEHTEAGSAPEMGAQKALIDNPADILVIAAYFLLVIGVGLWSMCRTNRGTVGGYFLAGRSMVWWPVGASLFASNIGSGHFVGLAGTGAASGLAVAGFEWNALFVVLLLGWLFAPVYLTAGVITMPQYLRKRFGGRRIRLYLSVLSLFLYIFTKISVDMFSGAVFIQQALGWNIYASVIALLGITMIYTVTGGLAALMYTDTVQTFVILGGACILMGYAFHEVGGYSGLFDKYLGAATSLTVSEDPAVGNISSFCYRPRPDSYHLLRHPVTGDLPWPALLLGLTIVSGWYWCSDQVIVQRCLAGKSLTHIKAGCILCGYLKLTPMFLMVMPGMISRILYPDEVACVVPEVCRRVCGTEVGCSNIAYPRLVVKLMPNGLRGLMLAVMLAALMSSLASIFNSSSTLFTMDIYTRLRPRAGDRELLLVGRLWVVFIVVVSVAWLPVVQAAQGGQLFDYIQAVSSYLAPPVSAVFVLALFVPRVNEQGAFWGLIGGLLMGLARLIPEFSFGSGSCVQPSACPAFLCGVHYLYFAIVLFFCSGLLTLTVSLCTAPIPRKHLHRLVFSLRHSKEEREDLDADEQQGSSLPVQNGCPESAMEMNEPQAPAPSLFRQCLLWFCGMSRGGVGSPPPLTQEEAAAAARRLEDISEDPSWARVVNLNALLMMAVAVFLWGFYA

Structure (SMILES)	IC50 [nM]
OC[C@H]1O[C@@H](c2ccc(Cl)c(Cc3ccc(N4CCOCC4)nn3)c2)[C@H](O)[C@@H](O)[C@@H]1O [Example 84, (2S,3R,4R,5S,6R)-2-(4-Chloro-3-((6-morpholinopyridazin-3-yl)methyl)phenyl)-6-(hydroxymethyl)-tetrahydro-2H-pyran-3,4,5-triol]	700
CCCCCc1nnc(Cc2cc([C@@H]3O[C@H](CO)[C@@H](O)[C@H](O)[C@H]3O)ccc2Cl)s1 [Example 33, (2S,3R,4R,5S,6R)-2-(4-Chloro-3-((5-pentyl-1,3,4-thiadiazol-2-yl)methyl)phenyl)-6-(hydroxymethyl)-tetrahydro-2H-pyran-3,4,5-triol]	353
COc1nnc(Cc2cc([C@@H]3O[C@H](CO)[C@@H](O)[C@H](O)[C@H]3O)ccc2Cl)s1 [Example 41, (2S,3R,4R,5S,6R)-2-(4-Chloro-3-((5-methoxy-1,3,4-thiadiazol-2-yl)methyl)phenyl)-6-(hydroxymethyl)-tetrahydro-2H-pyran-3,4,5-triol]	146
Cc1ccc(-c2nnc(Cc3cc([C@@H]4O[C@H](CO)[C@@H](O)[C@H](O)[C@H]4O)ccc3Cl)s2)o1 [Example 2, (2S,3R,4R,5S,6R)-2-(4-Chloro-3-((5-(5-methylfuran-2-yl)-1,3,4-thiadiazol-2-yl)methyl)phenyl)-6-(hydroxymethyl)-tetrahydro-2H-pyran-3,4,5-triol]	58.3
Cc1cc(Cc2cc([C@@H]3O[C@H](CO)[C@@H](O)[C@H](O)[C@H]3O)ccc2Cl)n[nH]c1=O [Example 83, 6-(2-Chloro-5-((2S,3R,4R,5S,6R)-3,4,5-trihydroxy-6-(hydroxymethyl)-tetrahydro-2H-pyran-2-yl)benzyl)-4-methylpyridazin-3(2H)-one]	618
Cc1ccsc1-c1nnc(Cc2cc([C@@H]3O[C@H](CO)[C@@H](O)[C@H](O)[C@H]3O)ccc2Cl)s1 [Example 7, (2S,3R,4R,5S,6R)-2-(4-chloro-3-((5-(3-methylthiophen-2-yl)-1,3,4-thiadiazol-2-yl)methyl)phenyl)-6-(hydroxymethyl)-tetrahydro-2H-pyran-3,4,5-triol]	762
OC[C@H]1O[C@@H](c2ccc(Cl)c(Cc3nnc(-c4ccc(Cl)cc4)s3)c2)[C@H](O)[C@@H](O)[C@@H]1O [Example 29, (2S,3R,4R,5S,6R)-2-(4-chloro-3-((5-(4-Chlorophenyl)-1,3,4-thiadiazol-2-yl)methyl)phenyl)-6-(hydroxymethyl)-tetrahydro-2H-pyran-3,4,5-triol]	126
OC[C@H]1O[C@@H](c2ccc(Cl)c(Cc3ccc(-c4ccoc4)nn3)c2)[C@H](O)[C@@H](O)[C@@H]1O [Example 63, (2S,3R,4R,5S,6R)-2-(4-Chloro-3-((6-(furan-3-yl)pyridazin-3-yl)methyl)phenyl)-6-(hydroxymethyl)-tetrahydro-2H-pyran-3,4,5-triol]	61.3
COC(=O)c1ccc(Cc2cc([C@@H]3O[C@H](CO)[C@@H](O)[C@H](O)[C@H]3O)ccc2Cl)nn1 [Example 49, Methyl 6-(2-chloro-5-((2S,3R,4R,5S,6R)-3,4,5-trihydroxy-6-(hydroxymethyl)-tetrahydro-2H-pyran-2-yl)benzyl)pyridazine-3-carboxylate]	201
CC(C)Cc1ccc(Cc2cc([C@@H]3O[C@H](CO)[C@@H](O)[C@H](O)[C@H]3O)ccc2Cl)nn1 [Example 77, (2S,3R,4R,5S,6R)-2-(4-Chloro-3-((6-isobutylpyridazin-3-yl)methyl)phenyl)-6-(hydroxymethyl)-tetrahydro-2H-pyran-3,4,5-triol]	811
OC[C@H]1O[C@@H](c2ccc(Cl)c(Cc3nnc(C(F)(F)F)s3)c2)[C@H](O)[C@@H](O)[C@@H]1O [Example 38, (2S,3R,4R,5S,6R)-2-(4-Chloro-3-((5-(trifluoromethyl)-1,3,4-thiadiazol-2-yl)methyl)phenyl)-6-(hydroxymethyl)tetrahydro-2H-pyran-3,4,5-triol]	155
CCCc1nnc(Cc2cc([C@@H]3O[C@H](CO)[C@@H](O)[C@H](O)[C@H]3O)ccc2Cl)s1 [Example 31, (2S,3R,4R,5S,6R)-2-(4-Chloro-3-((5-propyl-1,3,4-thiadiazol-2-yl)methyl)phenyl)-6-(hydroxymethyl)-tetrahydro-2H-pyran-3,4,5-triol]	214
OC[C@H]1O[C@@H](c2cc(Cc3nnc(-c4ccco4)s3)cc3ccccc23)[C@H](O)[C@@H](O)[C@@H]1O [Example 92, (2S,3R,4R,5S,6R)-2-(3-((5-(Furan-2-yl)-1,3,4-thiadiazol-2-yl)methyl)naphthalene-1-yl)-6-(hydroxymethyl)-tetrahydro-2H-pyran-3,4,5-triol]	88.9
CC1CCC(Cc2nnc(Cc3cc(C4O[C@H](CO)[C@@H](O)[C@H](O)[C@H]4O)ccc3Cl)s2)CC1 (stereo partly drawn) [Example 25, (3R,4R,5S,6R)-2-(4-Chloro-3-((5-((4-methylcyclohexyl)methyl)-1,3,4-thiadiazol-2-yl)methyl)phenyl)-6-(hydroxymethyl)-tetrahydro-2H-pyran-3,4,5-triol]	460
OC[C@H]1O[C@@H](c2ccc(Cl)c(Cc3ccc(-c4ccc5c(c4)OCO5)nn3)c2)[C@H](O)[C@@H](O)[C@@H]1O [Example 67, (2S,3R,4R,5S,6R)-2-(3-((6-(Benzo[d][1,3]dioxol-5-yl)pyridazin-3-yl)methyl)-4-chlorophenyl)-6-(hydroxymethyl)-tetrahydro-2H-pyran-3,4,5-triol]	82.7

The next compounds have a lower IC50 than those just listed; values first:

IC50 [nM]	Structure (SMILES)
16.6	OC[C@H]1O[C@@H](c2ccc(Cl)c(Cc3nnc(-c4ccccc4)s3)c2)[C@H](O)[C@@H](O)[C@@H]1O [Example 28, (2S,3R,4R,5S,6R)-2-(4-Chloro-3-((5-phenyl-1,3,4-thiadiazol-2-yl)methyl)phenyl)-6-(hydroxymethyl)-tetrahydro-2H-pyran-3,4,5-triol]
30.3	OC[C@H]1O[C@@H](c2ccc(Cl)c(Cc3nnc(-c4ccccn4)s3)c2)[C@H](O)[C@@H](O)[C@@H]1O [Example 15, (2S,3R,4R,5S,6R)-2-(4-Chloro-3-((5-(pyridin-2-yl)-1,3,4-thiadiazol-2-yl)methyl)phenyl)-6-(hydroxymethyl)tetrahydro-2H-pyran-3,4,5-triol]
53	OC[C@H]1OC(c2ccc(Cl)c(Cc3nnc(-c4ccncc4)s3)c2)[C@H](O)[C@@H](O)[C@@H]1O (stereo partly drawn) [Example 20, (3R,4R,5S,6R)-2-(4-Chloro-3-((5-(pyridin-4-yl)-1,3,4-thiadiazol-2-yl)methyl)phenyl)-6-(hydroxymethyl)-tetrahydro-2H-pyran-3,4,5-triol]
10.7	COc1c(Cc2nnc(-c3ccco3)s2)cc([C@@H]2O[C@H](CO)[C@@H](O)[C@H](O)[C@H]2O)c2ccccc12 [Example 93, (2S,3R,4R,5S,6R)-2-(3-((5-(Furan-2-yl)-1,3,4-thiadiazol-2-yl)methyl)-4-methoxynaphthalen-1-yl)-6-(hydroxymethyl)-tetrahydro-2H-pyran-3,4,5-triol]
4.06	OC[C@H]1O[C@@H](c2ccc(Cl)c(Cc3nnc(-c4cnccn4)s3)c2)[C@H](O)[C@@H](O)[C@@H]1O [Example 42, (2S,3R,4R,5S,6R)-2-(4-Chloro-3-((5-(pyrazin-2-yl)-1,3,4-thiadiazol-2-yl)methyl)phenyl)-6-(hydroxymethyl)-tetrahydro-2H-pyran-3,4,5-triol]
5.55	COc1cc(Cl)c(Cc2nnc(-c3ccco3)s2)cc1[C@@H]1O[C@H](CO)[C@@H](O)[C@H](O)[C@H]1O [Example 97, (2S,3R,4R,5S,6R)-2-(4-Chloro-5-((5-(furan-2-yl)-1,3,4-thiadiazol-2-yl)methyl)-2-methoxyphenyl)-6-(hydroxymethyl)-tetrahydro-2H-pyran-3,4,5-triol]
45.3	OC[C@H]1OC(c2ccc(Cl)c(Cc3nnc(-c4cccnc4)s3)c2)[C@H](O)[C@@H](O)[C@@H]1O (stereo partly drawn) [Example 21, (3R,4R,5S,6R)-2-(4-Chloro-3-((5-(pyridin-3-yl)-1,3,4-thiadiazol-2-yl)methyl)phenyl)-6-(hydroxymethyl)-tetrahydro-2H-pyran-3,4,5-triol]
17	CCCCCOc1ccc(Cc2cc([C@@H]3O[C@H](CO)[C@@H](O)[C@H](O)[C@H]3O)ccc2Cl)nn1 [Example 54, (2S,3R,4R,5S,6R)-2-(4-Chloro-3-((6-(pentyloxy)pyridazin-3-yl)methyl)phenyl)-6-(hydroxymethyl)-tetrahydro-2H-pyran-3,4,5-triol]
10.9	CSc1nnc(Cc2cc([C@@H]3O[C@H](CO)[C@@H](O)[C@H](O)[C@H]3O)ccc2Cl)s1 [Example 40, (2S,3R,4R,5S,6R)-2-(4-Chloro-3-((5-(methylthio)-1,3,4-thiadiazol-2-yl)methyl)phenyl)-6-(hydroxymethyl)-tetrahydro-2H-pyran-3,4,5-triol]
50.5	CCCCCCCCOc1ccc(Cc2cc([C@@H]3O[C@H](CO)[C@@H](O)[C@H](O)[C@H]3O)ccc2Cl)nn1 [Example 56, (2S,3R,4R,5S,6R)-2-(4-Chloro-3-((6-(octyloxy)pyridazin-3-yl)methyl)phenyl)-6-(hydroxymethyl)-tetrahydro-2H-pyran-3,4,5-triol]
